According to US6455556B2, “Crystal modifications of 1-(2,6-difluorobenzyl)-1H-1,2,3-triazole-4-carboxamide” (Novartis AG, priority 1997, dated 2002):

Experiment: dissolution rate in water and gastric fluid
Assay type: physicochemical
Conditions: compared with modification A or A′

dissolution rate in gastric fluid (gastric fluid): substantially faster
dissolution rate in water (water): substantially faster
SMILES: NC(=O)c1cn(Cc2c(F)cccc2F)nn1 [modification B, 1-(2,6-difluorobenzyl)-1H-1,2,3-triazole-4-carboxamide]
